Earlier results as cited in US6419959B1, “Galenic composition containing opioid antagonists” (Klinge Pharma GmbH, priority 1996, dated 2002).
Where two headings read alike, the source gives them in different places.

Key:
[1] = metabolites of naloxone present in the blood
[2] = tested on: patients given morphine
[3] = tested on: healthy probands
[4] = tested on: patients with opioid-induced constipation; conditions: oral
[5] = tested on: patients; conditions: oral
[6] = tested on: patients with opioid-induced constipation; conditions: oral, maximally administered dose 12 mg

C=CCN1CC[C@]23c4c5ccc(O)c4O[C@H]2[C@H](O)CC[C@@]3(O)[C@H]1C5 [β-naloxol]
effectiveness of metabolite [1]: not effective or only weakly effective

C=CCN1CC[C@]23c4c5ccc(O[C@@H]6O[C@H](C(=O)O)[C@@H](O)[C@H](O)[C@H]6O)c4O[C@H]2[C@H](O)CC[C@@]3(O)[C@H]1C5 [β-naloxol-3-glucuronide]
effectiveness of metabolite [1]: not effective or only weakly effective

CN1CC[C@]23c4c5ccc(O)c4O[C@H]2[C@@H](O)C=C[C@H]3[C@H]1C5 [morphine]
patients in whom constipation arises during treatment [2]: approximately 85%

C=CCN1CC[C@]23c4c5ccc(O)c4O[C@H]2C(=O)CC[C@@]3(O)[C@H]1C5 [naloxone]
neutralisation of the constipating effect of loperamide ([3]; intravenously applied, 40 μg/kg/hr in 3 hr): could neutralize the constipating effect of loperamide
neutralisation of the constipating effect of loperamide ([3]; oral administration of 16 or 32 mg): could neutralize the constipating effect of loperamide
response to the treatment (neutralisation of constipation) ([4]; doses of up to 16 mg, three patients): two of the three patients responded
neutralisation of constipation in the other patient (non-responder) ([4]; increase in dose of up to 24 mg within 3 hours): constipation could not be neutralized
dose-dependent maximal naloxone plasma concentrations ([4]; plasma level determinations): up to 7.9 ng/ml
effect on constipation ([5]; up to 10% naloxone dose with respect to the opioid dose): No effect was determinable
effect on constipation ([5]; very high dose range 20% to 40% of the opioid dose): neutralization of constipation
effect on the gastrointestinal motility [6]: not determinable in any of the treated patients

C=CCN1CC[C@]23c4c5ccc(O[C@@H]6O[C@H](C(=O)O)[C@@H](O)[C@H](O)[C@H]6O)c4O[C@H]2C(=O)CC[C@@]3(O)[C@H]1C5 [naloxone-3-glucuronide]
effectiveness of metabolite [1]: not effective or only weakly effective
